Here are results for 14 molecules from patent publication US4322496A, “Inhibition of lactate oxidase” (Eastman Kodak Company, priority 1980, dated 1982).

Where two headings read alike, the source gives them in different places. Some results are limits rather than exact numbers.

For one test, the target named is T1, L-Lactate Oxidase (Enterococcus casseliflavus, UniProt C9AC47).
T1 sequence (C9AC47 1-367): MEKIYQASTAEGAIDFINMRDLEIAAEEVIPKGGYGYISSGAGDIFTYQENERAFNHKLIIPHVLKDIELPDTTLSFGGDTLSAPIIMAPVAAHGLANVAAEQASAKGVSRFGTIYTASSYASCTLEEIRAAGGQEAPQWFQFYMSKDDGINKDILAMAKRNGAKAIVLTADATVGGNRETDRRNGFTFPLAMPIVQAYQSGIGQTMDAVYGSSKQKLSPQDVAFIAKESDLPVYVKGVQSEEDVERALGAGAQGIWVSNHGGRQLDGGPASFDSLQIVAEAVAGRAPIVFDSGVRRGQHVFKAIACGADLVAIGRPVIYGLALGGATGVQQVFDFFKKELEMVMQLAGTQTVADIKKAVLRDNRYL
The test is described as follows: biochemical. Particulars: for inhibition at 10000 µM: acid 10mM, read-out: LO % Inhibition; for inhibition of the enzymatic activity of lactate oxidase: measured at 30° C. Here is the method: (§1) In the examples, oxidative enzymes were prepared from Streptococcus faecium ATCC 12755. L-lactate oxidase was isolated from Streptococcus faecium as a 0-50% ammonium sulfate fraction as described in Esders et al., U.S. Pat. No. 4,166,763 issued Sept. 4, 1979. L-α-glycerophosphate oxidase was purified from Streptococcus faecium as described in Table V, of Research Disclosure Publication No. 16146 published Sept. 10, 1977.
In the examples, enzyme assays for lactate oxidase were carried out as follows: Assay reaction mixtures contained in a total volume of 1.0 ml: 100 μmoles potassium phosphate buffer, pH 7.0, 25 μmoles lactic acid, […] horseradish peroxidase (4.6 purpurogallin units), and 0.25 μmoles orthodianisidine. Compounds to be tested as potential inhibitors for lactate oxidase were added to the assay reaction mixtures as indicated in Example 1. Samples were equilibrated at 30° C. and then reactions were initiated by addition of Streptococcus faecium lactate oxidase. Absorbance at 430 nm was measured in a Beckman 25 spectrophotometer. Initial rates were calculated from the linear portion of the curve.

In test [1] the target is T2, L-α-Glycerophosphate Oxidase (Enterococcus casseliflavus, UniProt O86963).
T2 construct: L-α-glycerophosphate oxidase was purified from Streptococcus faecium; made in house; host or cells: Streptococcus faecium ATCC 12755 (native organism, not recombinant)
T2 sequence (O86963 1-609): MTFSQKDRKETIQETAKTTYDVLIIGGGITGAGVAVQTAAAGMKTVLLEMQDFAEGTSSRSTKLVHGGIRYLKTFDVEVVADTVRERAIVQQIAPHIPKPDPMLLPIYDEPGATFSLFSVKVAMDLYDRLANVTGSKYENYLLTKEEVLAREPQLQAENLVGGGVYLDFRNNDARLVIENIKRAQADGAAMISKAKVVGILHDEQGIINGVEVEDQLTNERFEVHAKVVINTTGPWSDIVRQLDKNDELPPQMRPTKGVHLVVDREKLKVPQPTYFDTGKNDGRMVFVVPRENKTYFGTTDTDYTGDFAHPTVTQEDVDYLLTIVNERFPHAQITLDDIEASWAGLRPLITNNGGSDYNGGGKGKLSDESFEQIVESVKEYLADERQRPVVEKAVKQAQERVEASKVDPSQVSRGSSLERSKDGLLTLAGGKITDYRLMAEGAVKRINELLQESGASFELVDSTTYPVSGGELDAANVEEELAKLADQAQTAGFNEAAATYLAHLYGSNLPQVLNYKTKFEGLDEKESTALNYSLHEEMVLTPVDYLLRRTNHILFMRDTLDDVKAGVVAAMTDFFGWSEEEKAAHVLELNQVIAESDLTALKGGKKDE
Put plainly: L-α-glycerophosphate oxidase enzyme assay (absorbance at 430 nm). Format: biochemical. Particulars: for inhibition at 5000 µM: compound at 5 mM, 37° C., pH 7.0, read-out: L-α-Glycerophosphate Oxidase Percent Inhibition. How it is done: as §1, with “1977. Extensively purified L-α-glycerophosphate oxidase (material carried through the whole purification sequence) contained L-α-glycerophosphate:lactate oxidase activity ratios of (1700-3000:1), whereas the partially purified L-α-glycerophosphate oxidase (material isolated as the 50-80% ammonium sulfate fraction) contained L-α-glycerophosphate:lactate oxidase activity ratios of 30-100:1.” for “1977.”
In the examples, enzyme assays for L-α-glycerophosphate oxidase were carried out as follows: Assay reaction mixtures contained in a total volume of 1.0 ml: 100 μmoles potassium phosphate buffer, pH 7.0, 66 μg orthodianisidine, 25 μg horseradish peroxidase (4.6 purpuragallin units) and 200 μmoles DL-α-glycerophosphate (at pH 7.0). Compounds to be tested as potential inhibitors were added to the reaction mixtures as indicated in Example 1. Samples were equilibrated at 37° C. and the reactions were initiated by the addition of an aliquot of enzyme. Absorbance at 430 nm was measured in a Beckman 25 spectrophotometer. Initial rates were calculated from the linear portion of the curve.

The target in test [2] is T3, beef meat lactate dehydrogenase (Bos taurus, UniProt P19858).
T3 construct: beef meat lactate dehydrogenase; from tissue; host or cells: beef meat (skeletal muscle)
Put plainly: LDH assay reaction mixture (pyruvate/NADH). The format is biochemical. To be noted: acid 10 mM; pH 7.5. Here is the method: The effect of these acids on LO was evaluated by studying an LO assay reaction mixture having the composition described above. The effect of these acids on LDH was evaluated by studying an LDH assay reaction mixture which contained in a total volume of 1.0 ml: 50 μmoles potassium phosphate buffer (pH 7.5); 1 μmole sodium pyruvate; 0.13 μmole NADH; 0.02 μg beef meat lactate dehydrogenase (320 U/mg) and the acid at a concentration of 10 mM. In the absence of acid, the rate of reaction was assumed to be 100% and the percent inhibition of each reaction was calculated accordingly.

[3] abbreviates: compound at 5 mM, 30° C., pH 7.0, rate without compound = 100%, read-out: L-Lactate Oxidase Percent Inhibition.
Where [4] appears, read: pH 7, read-out: L-Lactate Oxidase Percent Inhibition.

For `O=C(O)CC(O)C(=O)O` (centres unmarked) [Malic Acid], the “inhibition of lactate oxidase activity (in words)” value at L-Lactate Oxidase is reported as “little or no inhibition”. For the same molecule, the inhibition at 5000 µM on L-Lactate Oxidase (setting [3]) was 0%.

`O=CC(=O)O` [Glyoxalic Acid]: on L-Lactate Oxidase, the “inhibition of lactate oxidase activity (in words)” value is given as “inhibited the enzyme” and the inhibition at 10000 µM amounted to 100%. Also, the inhibition at 5000 µM on L-Lactate Oxidase (setting [3]) is 100%. In test [1], the “inhibition of L-α-GPO (in words)” value is given as “inhibited L-α-GPO as well” and the inhibition at 5000 µM was 100%. The inhibition at 10000 µM in test [2] was 15%.

On to `O=C(O)C(O)CO` (racemic) [Glyceric Acid], for which, on L-Lactate Oxidase (setting [3]), the inhibition at 5000 µM turned out to be 21%. The “inhibition of the enzymatic activity of lactate oxidase” value against L-Lactate Oxidase is given as below 50%.

As to `CCC(O)C(=O)O` (stereo not drawn) [α-Hydroxybutyric Acid], at L-Lactate Oxidase (setting [3]), the inhibition at 5000 µM was determined as 7%. For the same molecule, the “inhibition of the enzymatic activity of lactate oxidase” value against L-Lactate Oxidase was below 50%.

Regarding `COCC(=O)O` [Methoxyacetic Acid], the “inhibition of lactate oxidase activity (in words)” value on L-Lactate Oxidase is “little or no inhibition”. In addition, the inhibition at 5000 µM at L-Lactate Oxidase (setting [4]) was found to be 0%.

With `NCC(=O)O` [Glycine], the “inhibition of lactate oxidase activity (in words)” value at L-Lactate Oxidase is listed as “little or no inhibition”. Also, the inhibition at 5000 µM at L-Lactate Oxidase (setting [4]) was determined as 0%.

As to `NC(=O)C(=O)O` [Oxamic Acid], on L-Lactate Oxidase (setting [3]), the inhibition at 5000 µM worked out at 40%. Besides, the “inhibition of the enzymatic activity of lactate oxidase” value against L-Lactate Oxidase is reported as below 50%.

Regarding `NC(=O)C(N)=O` [Oxamide], the inhibition at 5000 µM on L-Lactate Oxidase (setting [3]) was determined as 43%. Further, the “inhibition of the enzymatic activity of lactate oxidase” value on L-Lactate Oxidase is given as below 50%.

Regarding `CC(O)C(N)=O` (centres unmarked) [Lactamide], the “inhibition of lactate oxidase activity (in words)” value against L-Lactate Oxidase is given as “little or no inhibition”. The inhibition at 5000 µM at L-Lactate Oxidase (setting [3]) was 0%.

Consider `CC(O)CC(=O)O` (stereo not drawn) [β-Hydroxybutyric Acid], for which the “inhibition of lactate oxidase activity (in words)” value at L-Lactate Oxidase is on record as “little or no inhibition”. The inhibition at 5000 µM at L-Lactate Oxidase (setting [3]) came to 0%.

Consider `O=C(O)CCC(=O)C(=O)O` [α-Ketoglutaric Acid], for which the “inhibition of lactate oxidase activity (in words)” value on L-Lactate Oxidase is given as “little or no inhibition”. For the same molecule, the inhibition at 5000 µM at L-Lactate Oxidase (setting [4]) came to 0%.

`O=C(O)C(O)C(=O)O` [Tartronic Acid]: on L-Lactate Oxidase (setting [3]), the inhibition at 5000 µM was 10%.

Regarding `O=C(O)CC(=O)O` [Malonic Acid], the inhibition at 5000 µM on L-Lactate Oxidase (setting [3]) came to 30%. Further, the “inhibition of the enzymatic activity of lactate oxidase” value on L-Lactate Oxidase was below 50%.

Consider `O=C(O)C(=O)O` [Oxalic Acid], for which, on L-Lactate Oxidase, the “inhibition of lactate oxidase activity (in words)” value was “greatly inhibit”. Further, the inhibition at 10000 µM was found to be 94% at L-Lactate Oxidase and 100% in test [2]. The figures for the inhibition at 5000 µM (at L-Lactate Oxidase (setting [3]); in test [1]) were 94% and 0%, respectively. For the same molecule, the “inhibition of L-α-GPO (in words)” value in test [1] is “do not inhibit”.
